# From patent publication US20130143825A1, “COMPOUNDS FOR USE IN THE TREATMENT OF DISEASES BASED ON THE EXPRESSION OF TOXIC TRANSCRIPTS” (UNIVERSITAT DE VALENCIA, priority 2010, published 2013)
# Non-standard residues stand in square brackets, D forms with d. Residues, ends and D or L forms follow the SMILES beside them. No end group written: not given here.
# What was measured:
# [1] = test system: 103Y-Gal4/+;UAS-CTG(480)/+ flies; test: Lethality phenotype in pupae caused by expression of 480 CTG under 103Y-Gal4 (females born); assay type: in vivo, Drosophila; set-up: key to Treated born/Control born: —: - indicates that no females were born, in neither the control tubes and the treated tubes; settings: 80 μM; females born vs DMSO control; * p-value <0.05
# Experimental: The 120 vials that make up the chemical library were individually assayed on the lethality phenotype in pupae caused by the expression of 480 CTG under the control of 103Y-Gal4 at a concentration of 80 μM. […] Thus, for positions O1, O2, O3, O4, O5 and O6 of the hexapeptide, a total of six, three, six, four, two and seven active amino acids were obtained, respectively (FIG. 2A). In order to perform the deconvolution, 10 of these 28 amino acids were selected, on the basis of their degree of activity in the biological assay (FIG. 2A). Finally, of the possible combinations, 16 sequences were selected to perform the synthesis of the defined hexapeptides (FIG. 2B). The selection of these 16 peptides was based on redundancy criteria between the physical and chemical properties of active amino acids in similar positions.
# At 250 μM, the activity of the peptide decreased, possibly due to a toxic effect of the peptide at higher concentrations.
# In order to determine the contribution of each of the p10 residues to their activity on CTG(480), an alanine scanning experiment was performed. These experiments are based on substituting every amino acid of the peptide with alanine and keeping the rest. Alanine is a small amino acid and, in general, not very active; this is why it is used for this type of studies. Since each alanine substitution examines the contribution of an individual amino acid, this experiment makes it possible, on the one hand, to evaluate whether p10 is susceptible to optimisation (in the event that a substitution increases the efficacy of the molecule), or to determine which amino acids are important for its function (in the event that a substitution decreases the activity thereof). The sequence of p10 allows for 5 substitutions; for this reason, 5 new hexapeptides were synthesised which were assayed in relation to the lethality phenotype in 103Y-Gal4; UAS-CTG(480)/+ flies and commercial food.
# 2-AP-(CUG)23 RNA = test: 2-aminopurine fluorescence assay (hairpin opening); assay type: biochemical; settings: 100 μM
# Experimental: Measurements of the fluorescence emitted (Y-axis), measured as relative fluorescence units (RFU), by 2-aminopurine in a (CUG)23 RNA (1 μM) in the presence of MblZF (0.1 μM, 1 μM, 2 μM and 5 μM) (A) or p10 (0.1 μM, 1 μM, 2 μM, 5 μM and 100 μM) (B), relative to the fluorescence emitted by the free RNA. p10 caused a 2.9-increase in the fluorescence of 2-AP at 100 μM, which indicates a change towards single-stranded. This effect was not observed when incubating the RNA with DMSO, or with the alanine scanning peptides with sequences: ppyawa and payawe (C).
# In order to confirm whether said changes cause a loss of the hairpin loop structure, an experiment was performed using an RNA composed of 23 CUG repeats, wherein a guanine had been substituted with its analogue 2-aminopurine (2-AP-(CUG)23). When 2-AP is in a single-stranded environment, it emits fluorescence at 375 nm. […] However, upon increasing the concentration of p10 to 100 μM (RNA:peptide 1:100), the 2AP-(CUG)23 RNA underwent a conformational change, from double-stranded to single-stranded, with a 2.9-fold increase in the fluorescence emission of the molecule (FIG. 28B). In order to confirm the specificity of this effect, the same experiment was performed, incubating the alanine scanning peptides (payawe and ppyawa) with the 2-AP-(CUG)23 RNA at the same concentration as p10 (100 μM).
# As may be observed in FIG. 29, in this example we use the 2-aminopurine assay in order to assay 4 peptides (p11, p5, p12 and p15) in addition to p10, obtained from the deconvolution of the combinatorial peptide library explained in this invention. […] The concentration used in all cases is 100 μM.
# FVB wild strain mice = test: Toxicity of p10 in mammals, intramuscular injection; assay type: in vivo
# Experimental: In order to study the possible toxic effect of p10 in mammals and establishing the maximum tolerable dose for subsequent assays, the peptide was administered to mice from the FVB wild strain. Due to the low absorption of peptides by the intestinal walls, it was decided to perform intramuscular injections in the anterior tibial muscle of animals 4-5 weeks of age, using four different doses (0.5 μg, 1 μg, 10 μg and 100 μg), with a total of 6 mice per dose (3 females and 3 males). 4 weeks after the injection, the animals were sacrificed and a visual autopsy was performed, jointly with a histomorphological study of the muscle and a blood test (FIG. 31). As a control, animals injected with the same quantity of DMSO (0.2% for the 0.5-μg and 1-μg doses, and 2% for the 10-μg and 100-μg doses) were used.
# However, the blood tests did show differences between the treated animals and the control. As a marker of renal activity, we measured the quantity of […], urea and creatinine in the blood. The creatine phosphokinase (CPK) enzyme was used as a marker of damage to the skeletal muscle and the heart, and alkaline phosphatase (AP), gamma-glutamyl transpeptidase (GGT) and glutamate pyruvate transaminase (GPT) were used as markers of hepatic damage. […] This could be due to the toxicity of DMSO or to the injection itself. […] Urea is the final result of protein metabolism. It is formed in the liver and eliminated in the urine. If the kidney is not functioning correctly, urea accumulates in the blood. GPT is an enzyme that is present in the liver at a high concentration and, to a lower extent, in the kidneys, the heart and the muscles. When there is an injury in these organs, the enzyme is released into the blood and appears high in tests. Moreover, it is worth noting that two of the mice treated with the 100-μg dose died approximately 11 days after the injection (p/i), which confirms the toxicity of p10 when it exceeds a threshold value. It was possible to extract blood from one of these two animals just before it died.
# [2] = test system: 103Y-Gal4/+;UAS-CTG(480)/+ flies; test: Lethality phenotype in pupae caused by expression of 480 CTG under 103Y-Gal4 (females born); assay type: in vivo, Drosophila; set-up: key: —: - indicates that no females were born, in neither the control tubes and the treated tubes; settings: females born vs DMSO control
# [3] = test system: GMR-Gal4 UAS-CTG(480) flies; test: Endogenous expression of p10-derived peptides (Gal4/UAS), rough eye phenotype; assay type: in vivo, Drosophila
# Excerpt: Thus, three different transgenes were designed, with SEQ ID NO: 17-19 (p17-p19), which encoded different peptides, all based on sequence SEQ ID NO: 10 corresponding to p10 (FIG. 9), taking into consideration the codon usage bias in Drosophila (i.e. favouring the use of G, and in particular C, in the synonymous sites; Powell & Moriyama, 1997) and adding an initial Methionine, as well as three spacer Glycines, to sequence SEQ ID NO: 10. Moreover, upstream from the […] initiation codon, 21 nucleotides of the 5′UTR end of the act5C gene of Drosophila which included the Kozak sequence were added, in order to enhance the expression of the transgenes.
# p17 contained the direct sequence of the peptide of SEQ ID NO: 10. As discussed above, the peptides in the hexapeptide chemical library are composed of D-amino acids. The D-forms (dextrogyre) of amino acids are stereoisomers of the L-forms (levogyres) and only L-amino acids are synthesised in the cells and incorporated into proteins. Consequently, if the arrangement of the lateral chains of p10 is important for the function thereof, the latter would be lost when p17 is synthesised by Drosophila from L-aa. For this reason, it was decided to generate construct p18, wherein the peptide sequence of SEQ ID NO: 10 was inverted, leading to a retro-inverse peptide (Chorev & Goodman, 1995; P. M. Fischer, 2003). At the time when these transgenes were generated, the smallest constructs described in the literature encoded peptides with more than 20 amino acids, which is more than twice the size of peptides p17 and p18 (which have only ten amino acids). For this reason, construct p19 was generated, which combined the constructs of peptides p17 and p18, leading to a peptide with 19 amino acids. The three constructs were microinjected in the precursors of the germinal line of Drosophila embryos, leading to 10 lines of transgenic flies for each transgene.
# The transgenic flies obtained were crossed with the GMR-Gal4 UAS-CTG(480)/CyO and Mhc-Gal4 UAS-CTG(480)/TM6b recombinant fly lines generated during this invention, which directed the expression of the CTG repeats in the eye and the muscle, respectively. As in the case of the sev-Gal4 UAS-CTG(480)/+ flies, the adult GMR-Gal4 UAS-CTG(480)/UAS-GFP flies presented a strong rough eye phenotype. […] However, the opposite phenomenon occurred at 25° C. and at 29° C. […] Given that changes in temperature affect the expression of the CTG(480) transgenes and peptides p17-p19 in a different manner, since the latter are inserted in different regions of the genome, there may be a relation between the quantity of peptide and of repeats that must be reached, whereafter p10 becomes toxic.
# [4] = 100-μg dose, one mouse just before it died
molecule,measurement,setting,value
p2: defined hexapeptide obtained following deconvolution of the D-amino acid combinatorial library ([dC][dP][dY][dA][dW][dE]),Treated born/Control born,[1],—
p11: defined hexapeptide obtained following deconvolution of the D-amino acid combinatorial library ([dP][dP][dY][dT][dQ][dE]),"destructuration of CUG23 probe, comparative 2-aminopurine assay",2-AP-(CUG)23 RNA,significant levels of specificity and efficacy
same,Treated born/Control born,[1],0.8
C[C@@H](NC(=O)[C@@H](Cc1ccc(O)cc1)NC(=O)[C@H]1CCCN1C(=O)[C@H]1CCCN1)C(=O)N[C@H](Cc1c[nH]c2ccccc12)C(=O)N[C@H](CCC(=O)O)C(=O)O [p10] (H-[dP][dP][dY][dA][dW][dE]-OH),visual autopsy and histological analysis of the muscles vs DMSO controls,"FVB wild strain mice; 0.5, 1, 10, 100 μg i.m., 4 weeks after injection",did not reveal significant differences
same,urea and GPT in the blood vs controls,FVB wild strain mice; 10-μg and 100-μg doses i.m.,even higher values of urea and GPT
same,time of death after the injection,FVB wild strain mice; 100-μg dose,approximately 11 days
same,mice that died,"FVB wild strain mice; 100-μg dose, 6 mice per dose",two
same,"CPK in blood, times greater than the control with DMSO",FVB wild strain mice; [4],15 times
same,"CPK in blood, times greater than the upper limit of the standard values",FVB wild strain mice; [4],28 times
same,"urea, creatinine, CPK and GGT in the blood",FVB wild strain mice; [4],extremely high values
p8: defined hexapeptide obtained following deconvolution of the D-amino acid combinatorial library ([dC][dQ][dY][dT][dW][dE]),Treated born/Control born,[2]; 57 μM,0.9
p4: defined hexapeptide obtained following deconvolution of the D-amino acid combinatorial library ([dC][dP][dY][dT][dW][dE]),Treated born/Control born,[2]; 62 μM,—
p3: defined hexapeptide obtained following deconvolution of the D-amino acid combinatorial library ([dC][dP][dY][dT][dQ][dE]),Treated born/Control born,[1],0.8
p9: defined hexapeptide obtained following deconvolution of the D-amino acid combinatorial library ([dP][dP][dY][dA][dQ][dE]),Treated born/Control born,[1],2.0
p12: defined hexapeptide obtained following deconvolution of the D-amino acid combinatorial library ([dP][dP][dY][dT][dW][dE]),"destructuration of CUG23 probe, comparative 2-aminopurine assay",2-AP-(CUG)23 RNA,significant levels of specificity and efficacy
same,Treated born/Control born,[1],3.0
p13: defined hexapeptide obtained following deconvolution of the D-amino acid combinatorial library ([dP][dQ][dY][dA][dQ][dE]),Treated born/Control born,[1],0.8
p6: defined hexapeptide obtained following deconvolution of the D-amino acid combinatorial library ([dC][dQ][dY][dA][dW][dE]),Treated born/Control born,[2]; 25 μM,—
p16: defined hexapeptide obtained following deconvolution of the D-amino acid combinatorial library ([dP][dQ][dY][dT][dW][dE]),Treated born/Control born,[2]; 38.5 μM,0.4
p7: defined hexapeptide obtained following deconvolution of the D-amino acid combinatorial library ([dC][dQ][dY][dT][dQ][dE]),Treated born/Control born,[1],1.4
"p17: endogenously expressed ten amino acid peptide: initial Methionine, three spacer Glycines and the direct sequence of p10 (MGGGPPYAWE)",rough eye phenotype on co-expression with CTG(480),[3]; 19° C. and 21° C.,not
same,transgenic lines assayed that modified the phenotype of GMR-Gal4 UAS-CTG(480) flies,[3]; in vivo,none of the five lines
p1: defined hexapeptide obtained following deconvolution of the D-amino acid combinatorial library ([dC][dP][dY][dA][dQ][dE]),Treated born/Control born,[1],0.3
p14: defined hexapeptide obtained following deconvolution of the D-amino acid combinatorial library ([dP][dQ][dY][dA][dW][dE]),Treated born/Control born,[2]; 40 μM,1.8
